Values of other authors as cited in patent US20040063806A1, “Antimicrobial polyalphaolefin composition” (priority 2000, published 2004).
Where two headings read alike, the source gives them in different places.

Assays:
[1] = test system: Citrobacter freundii; settings: origin A, medium NA
[2] = test system: Klebsiella pneumoniae
[3] = test system: Mycobacterium phlei; settings: origin A, medium BHI-A
[4] = test system: Streptococcus pyogenes; settings: Streptococcus pyogenes ATCC 21059, medium M-H
[5] = test system: Streptococcus agalactiae; settings: Streptococcus agalactiae NCTC 8181, medium BHI-A
[6] = test system: Actinomyces bovis; settings: origin A, medium NA
[7] = test system: Proteus vulgaris
[8] = test system: Salmonella typhimurium; settings: Salmonella typhimurium NCTC 5710, medium NA
[9] = test system: Aerobacter arogenes; settings: Aerobacter arogenes CITM 413, medium NA
[10] = test system: Aspergillus niger; settings: Aspergillus niger ATCC 6275, medium M
[11] = test system: Enterococcus faecium
[12] = test system: Lactobacillus fermenti; settings: Lactobacillus fermenti ATCC 707, medium MACA
[13] = test system: Brucella intermedia; settings: origin A, medium BR.A.A.
[14] = test system: Candida paracrusei; settings: origin A, medium SMA
[15] = test system: Escherichia coli
[16] = test system: Lactobacillus rhamnosus; settings: Lactobacillus rhamnosus NCTC 7469, medium MACA
[17] = test system: Clostridium botulinum; settings: Clostridium botulinum NCTC 3805, medium EA
[18] = test system: Clostridium tetani; settings: Clostridium tetani NCTC 9571, medium EA
[19] = test system: Alcaligenes faecalis; settings: origin A, medium NA
[20] = test system: Enterobacter aerogenes; settings: Enterobacter aerogenes ATCC 13048, medium M-H
[21] = test system: Staphylococcus lactis; settings: Staphylococcus lactis NCTC 8340, medium NA
[22] = test system: Sarcina urea; settings: Sarcina urea ATCC 6473, medium BHI-A
[23] = test system: Klebsiella aerogenes; settings: Klebsiella aerogenes NCTC 8172, medium NA
[24] = test system: Shigella flexneri
[25] = test system: Streptococcus pneumoniae; settings: Streptococcus pneumoniae ATCC 33400, medium M-H
[26] = test system: Candida utilis; settings: origin A, medium SMA
[27] = test system: Streptococcus saprophyticus; settings: Streptococcus saprophyticus ATCC 15305, medium M-H
[28] = test system: Enterobacter cloacae; settings: Enterobacter cloacae ATCC 13047, medium M-H
[29] = test system: Moraxella glucidolytica; settings: origin A, medium NA
[30] = test system: Serratia marcescens; settings: Serratia marcescens ATCC 14756, medium M-H
[31] = test system: Proteus mirabilis; settings: Proteus mirabilis ATCC 14153, medium M-H
[32] = test system: Staphylococcus hyicus; settings: Staphylococcus hyicus NCTC 7944, medium BHI-A
[33] = test system: Trochophyton tonsurans; settings: origin A, medium SMA
[34] = test system: Staphylococcus saprophyticus; settings: Staphylococcus saprophyticus NCTC 7292, medium NA
[35] = test system: Vibrio eltor; settings: Vibrio eltor NCTC 8457, medium NA
[36] = test system: Clostridium perfringens; settings: Clostridium perfringens NCTC 3110, medium EA
[37] = test system: Clostridium sporogenes; settings: origin A, medium EA
[38] = test system: Pseudomonas aeruginosa
[39] = test system: Loefferella pseudomallei; settings: Loefferella pseudomallei NCIB 10230, medium NA

What does the source list for `Oc1cc(Cl)ccc1Oc1ccc(Cl)cc1Cl` [IRGAGUARD B 1000, 2,4,4′-trichloro-2′-hydroxydiphenyl ether]?
Microbiostatic effect [1]: 3.0 ppm; Microbiostatic effect ([2]; Klebsiella pneumoniae ATCC 4352, medium NA): 0.3 ppm; Microbiostatic effect ([2]; Klebsiella pneumoniae ATCC 10031, medium M-H): 0.125 ppm; Microbiostatic effect [3]: 0.3 ppm; Microbiostatic effect [4]: 4.0 ppm; Microbiostatic effect [5]: 3.0 ppm; Microbiostatic effect [6]: 1.0 ppm; Microbiostatic effect ([7]; Proteus vulgaris NCTC 4636, medium NA): 0.3 ppm; Microbiostatic effect ([7]; Proteus vulgaris NCTC 8313, medium NA): 0.1 ppm; Microbiostatic effect [8]: 0.3 ppm; Microbiostatic effect [9]: 1.0 ppm; Microbiostatic effect [10]: 30 ppm; Microbiostatic effect ([11]; Enterococcus faecium ATCC 10541, medium BHI-A): 3.0 ppm; Microbiostatic effect ([11]; Enterococcus faedium ATCC 6057, medium M-H): 4.0 ppm; Microbiostatic effect ([11]; Enterococcus faedium NCTC 8619, medium BHI-A): 10.0 ppm; Microbiostatic effect [12]: 33.0 ppm; Microbiostatic effect [13]: 0.1 ppm; Microbiostatic effect [14]: 4 ppm; Microbiostatic effect ([15]; Escheria coli ATCC 8196, medium M-H): 0.02 ppm; Microbiostatic effect ([15]; Escherichia coli ATCC 4388, medium M-H, Serotype 0157): 0.1 ppm; Microbiostatic effect ([15]; Escherichia coli ATCC 9661, medium NA): 0.3 ppm; Microbiostatic effect ([15]; Escherichia coli ATCC 10536, medium BHI): 0.5 ppm; Microbiostatic effect ([15]; Escherichia coli ATCC 11229, medium M-H): 0.5 ppm; Microbiostatic effect ([15]; Escherichia coli ATCC 25922, medium M-H): 0.25 ppm; Microbiostatic effect ([15]; Escherichia coli ATCC 35150, medium M-H, Serotype 0157): 0.2 ppm; Microbiostatic effect ([15]; Escherichia coli ATCC 43889, medium M-H, Serotype 0157): 0.2 ppm; Microbiostatic effect ([15]; Escherichia coli ATCC 43890, medium M-H, Serotype 0157): 0.2 ppm; Microbiostatic effect ([15]; Escherichia coli NCTC 9663, medium NA): 0.3 ppm; Microbiostatic effect ([15]; Escherichia coli NCTC 11186, medium M-H, Tobramicin resistant): 0.5 ppm; Microbiostatic effect [16]: 33.0 ppm; Microbiostatic effect [17]: 3.0 ppm; Microbiostatic effect [18]: 3.0 ppm; Microbiostatic effect [19]: >100 ppm; Microbiostatic effect [20]: 0.5 ppm; Microbiostatic effect [21]: 3.0 ppm; Microbiostatic effect [22]: 0.1 ppm; Microbiostatic effect [23]: 0.3 ppm; Microbiostatic effect ([24]; Shigella flexneri NCTC 8192, medium NA): 0.3 ppm; Microbiostatic effect ([24]; Shigella flexneri NCTC 8204, medium NA): 0.1 ppm; Microbiostatic effect [25]: 4.0 ppm; Microbiostatic effect [26]: 33 ppm; Microbiostatic effect [27]: 0.125 ppm; Microbiostatic effect [28]: 0.5 ppm; Microbiostatic effect [29]: 0.3 ppm; Microbiostatic effect [30]: >512 ppm; Microbiostatic effect [31]: 0.5 ppm; Microbiostatic effect [32]: 0.03 ppm; Microbiostatic effect [33]: 10 ppm; Microbiostatic effect [34]: 0.1 ppm; Microbiostatic effect [35]: 10.0 ppm; Microbiostatic effect [36]: 10.0 ppm; Microbiostatic effect [37]: 10.0 ppm; Microbiostatic effect ([38]; Pseudomonad aeruginosa ATCC 12055, medium NA): >1000 ppm; Microbiostatic effect ([38]; Pseudomonas aeruginosa NCTC 8060, medium NA): >1000 ppm; Microbiostatic effect [39]: 1.0 ppm
